Paper PMC4348537, “Discovery of Novel New Delhi Metallo-β-Lactamases-1 Inhibitors by Multistep Virtual Screening” (PLoS ONE, 2015)

Key:
[1] = biological target: T1, NDM-1 (New Delhi metallo-β-lactamase-1) (Klebsiella pneumoniae, UniProt C7C422); test: nitrocefin hydrolysis assay with purified enzyme, dose-response; similar with […] Triton X-100; format: biochemical
T1 construct: gene blaNDM-1

[2] = biological target: T1, NDM-1 (New Delhi metallo-β-lactamase-1); test: steady-state hydrolysis kinetics at […] nm, Km by Lineweaver-Burk plot; format: biochemical

T1 sequence (C7C422 29-270 limits assumed): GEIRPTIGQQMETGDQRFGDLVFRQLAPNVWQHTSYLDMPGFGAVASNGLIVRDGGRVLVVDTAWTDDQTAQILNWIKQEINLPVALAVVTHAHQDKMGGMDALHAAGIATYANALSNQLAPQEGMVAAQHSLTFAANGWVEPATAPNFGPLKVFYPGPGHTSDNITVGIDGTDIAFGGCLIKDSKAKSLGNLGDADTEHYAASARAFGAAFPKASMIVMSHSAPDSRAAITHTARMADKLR

SMILES | IC50 [1] [µM] | Km [2] [µM]
CCOc1ccc(S(=O)(=O)N2CCN(c3cc(Nc4ccc(C)cc4)nc(C)n3)CC2)cc1 [VNI-34] | 31.4 ± 1.2 | 
O=C(Nc1cccc2ccccc12)C1CCN(S(=O)(=O)c2cccc3nonc23)CC1 [VNI-41] | 29.6 ± 1.3 | 
Cc1cc(C)c(NC(=O)CSc2ncc3c(n2)-c2ccc(Cl)cc2N(C)S3(=O)=O)c(C)c1 [VNI-24] | 37.6 ± 0.9 | 
O=C(Cc1cccs1)N[C@@H]1C(=O)N2C(C(=O)O)=C(/C=C/c3ccc([N+](=O)[O-])cc3[N+](=O)[O-])CS[C@H]12 [nitrocefin] |  | 9.54 ± 0.43
